Laboratory results taken from patent US11401286B2 (Tetra Discovery Partners, LLC, priority 2012, dated 2022).
Structures can show the parent of a compound that is named as a salt.

The molecules below were run against PDE4D7 (Homo sapiens (Human), UniProt Q08499). Settings: read-out: PDE4D7 IC50.
PDE4D7, sequence (Q08499 other isoform, or with tags, fused parts or gaps): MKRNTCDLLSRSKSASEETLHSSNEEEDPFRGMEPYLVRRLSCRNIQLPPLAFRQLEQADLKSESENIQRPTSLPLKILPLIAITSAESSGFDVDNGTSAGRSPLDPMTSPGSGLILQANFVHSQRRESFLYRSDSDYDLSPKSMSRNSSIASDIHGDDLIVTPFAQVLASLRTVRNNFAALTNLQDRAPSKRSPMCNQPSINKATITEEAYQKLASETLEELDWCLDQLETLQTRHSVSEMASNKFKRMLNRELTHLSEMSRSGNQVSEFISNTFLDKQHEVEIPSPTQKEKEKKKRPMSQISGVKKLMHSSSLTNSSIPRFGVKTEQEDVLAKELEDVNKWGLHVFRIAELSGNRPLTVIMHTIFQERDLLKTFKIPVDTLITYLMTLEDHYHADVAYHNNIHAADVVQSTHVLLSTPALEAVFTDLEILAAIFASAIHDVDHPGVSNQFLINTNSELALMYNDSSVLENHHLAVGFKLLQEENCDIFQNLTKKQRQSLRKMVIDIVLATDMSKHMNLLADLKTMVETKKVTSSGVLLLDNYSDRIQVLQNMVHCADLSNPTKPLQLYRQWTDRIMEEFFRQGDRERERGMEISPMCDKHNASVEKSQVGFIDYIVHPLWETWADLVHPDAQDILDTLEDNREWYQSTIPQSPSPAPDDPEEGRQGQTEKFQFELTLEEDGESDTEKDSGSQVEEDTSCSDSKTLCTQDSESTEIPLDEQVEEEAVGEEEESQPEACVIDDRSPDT

SMILES | IC50 [nM]
CN1CCN(c2cc(Nc3ccc(CC(N)=O)cc3)c3c(n2)CCC3)CC1 [Example 253, 2-(4-((2-(4-methylpiperazin-1-yl)-6,7-dihydro-5H-cyclopenta[b]pyridin-4-yl)amino)phenyl)acetamide hydrochloride] | > 1000
C[C@@H]1CN(c2cc(Nc3ccc(CC(N)=O)cc3)c3c(n2)CCC3)CCN1 [Example 255, (R)-2-(4-((2-(3-Methylpiperazin-1-yl)-6,7-dihydro-5H-cyclopenta[b]pyridin-4-yl)amino)phenyl)acetamide hydrochloride] | > 1000

Same assay, conditions: read-out: PDE4D7 IC50; PDE4D7 without asterisk

IC50 [nM] | SMILES
> 1000 | NC(=O)Cc1ccc(Nc2cc(C3CCCCC3)nc3c2CCC3)cc1 [Example 250, 2-(4-((2-Cyclohexyl-6,7-dihydro-5H-cyclopenta[b]pyridin-4-yl)amino)phenyl)acetamide hydrochloride]
> 1000 | OCCc1ccc(Nc2cc(C3CCCCC3)nc3c2CCC3)cc1 [Example 251, 2-(4-((2-cyclohexyl-6,7-dihydro-5H-cyclopenta[b]pyridin-4-yl)amino)phenyl)ethanol hydrochloride]
> 1000 | NC(=O)Cc1ccc(Nc2cc(OC3CCCC3)nc3c2CCC3)cc1 [Example 256, 2-(4-((2-(Cyclopentyloxy)-6,7-dihydro-5H-cyclopenta[b]pyridin-4-yl)amino)phenyl)acetamide hydrochloride]
> 1000 | OCCc1ccc(Nc2cc(OC3CCCC3)nc3c2CCC3)cc1 [Example 257, 2-(4-((2-(Cyclopentyloxy)-6,7-dihydro-5H-cyclopenta[b]pyridin-4-yl)amino)phenyl)ethanol hydrochloride]
> 1000 | NC(=O)Cc1ccc(Nc2cc(SC3CCCC3)nc3c2CCC3)cc1 [Example 258, 2-(4-((2-(Cyclopentylthio)-6,7-dihydro-5H-cyclopenta[b]pyridin-4-yl)amino)phenyl)acetamide]
> 1000 | NC(=O)Cc1ccc(Nc2cc(S(=O)(=O)C3CCCC3)nc3c2CCC3)cc1 [Example 259, 2-(4-((2-(Cyclopentylsulfonyl)-6,7-dihydro-5H-cyclopenta[b]pyridin-4-yl)amino)phenyl)acetamide]
> 1000 | CC(C)Oc1cc(Nc2ccc(CCO)cc2)c2c(n1)CCC2 [Example 260, 2-(4-((2-Isopropoxy-6,7-dihydro-5H-cyclopenta[b]pyridin-4-yl)amino)phenyl)ethanol hydrochloride]
> 1000 | CC(C)Oc1cc(Nc2ccc(CC(N)=O)cc2)c2c(n1)CCC2 [Example 261, 2-(4-((2-Isopropoxy-6,7-dihydro-5H-cyclopenta[b]pyridin-4-yl)amino)phenyl)acetamide hydrochloride]
> 1000 | NC(=O)Cc1ccc(C(O)c2cc(-c3cccc(Cl)c3)nc3c2CCC3)cc1 (stereo not drawn) [Example 262, 2-(4-((2-(3-Chlorophenyl)-6,7-dihydro-5H-cyclopenta[b]pyridin-4-yl)(hydroxy)methyl)phenyl)acetamide hydrochloride]
> 1000 | OCCc1ccc(C(O)c2cc(-c3cccc(Cl)c3)nc3c2CCC3)cc1 (stereo not drawn) [Example 263, 2-(4-((2-(3-Chlorophenyl)-6,7-dihydro-5H-cyclopenta[b]pyridin-4-yl)(hydroxy)methyl)phenyl)ethanol]
< 1000 | CCc1nc(Nc2ccc(CCO)cc2)cc(-c2cccc(Cl)c2)n1 [Example 264, 2-(4-((6-(3-Chlorophenyl)-2-ethylpyrimidin-4-yl)amino)phenyl)ethanol]
< 1000 | CCc1nc(Nc2ccc(CC(N)=O)cc2)cc(-c2cccc(Cl)c2)n1 [Example 265, 2-(4-((6-(3-chlorophenyl)-2-ethylpyrimidin-4-yl)amino)phenyl)acetamide]
> 1000 | OCCCc1cccc(-c2cc(-c3cccc(Cl)c3)nc3c2CCC3)c1 [Example 266, 3-(3-(2-(3-chlorophenyl)-6,7-dihydro-5H-cyclopenta[b]pyridin-4-yl)phenyl)propan-1-ol hydrochloride]
